# Source: patent publication EP3838286B1, “ANTIMICROBIAL PEPTIDE FROM POLISTES GALLICUS VENOM AND ITS ANALOGS” (Latoxan, priority 2019, dated 2021)
# Where “and” joins values, the source holds several entries; their conditions need not be identical. Identical values can stand only once. Ends that are not written are not given here.
# Experiments:
# [1] = tested on: HeLa TLR4/IL-8 Renilla Luciferase Reporter cell line; assay: Anti-inflammatory activity (LPS stimulation, luciferase reporter); type: cell-based; conditions: 10 ng/mL LPS from P. aeruginosa; 6 h incubation; read-out: IC50 (inhibition of LPS effect)
# Protocol: Anti-inflammatory activity of the peptides was determined using eLUCidate™ HeLa TLR4/IL-8 Renilla Luciferase Reporter cell line (obtained from ASMBIO). eLUCidate™ HeLa cells were cultivated according to manufacturer instructions. eLUCidate™ HeLa cells were seeded in 96 wells plates at an initial 50,000 cells/well. The next day, media from wells was empty and cells were exposed to LPS from P. aeruginosa (from Sigma Aldrich) diluted in culture media at a final concentration of 10 ng/ml in the presence of increasing concentrations of peptides. Polymyxin B (PMB, from Sigma Aldrich) was used as positive control. After 6 h incubation at 37°C in an incubator containing 5% CO2, wells were empty and cells were lysed in 70 µl of PBS containing 1% Triton X100 for 15 min on ice. 50 µl of cell lysats were then transferred to white 96 wells plates containing 50 µl of Renilla Luciferase substrate (Genofax A from Yelen, Marseille France). Luminescence intensities were measured using microplate reader (Synergy Mx, Biotek). The luminescence values were normalized by the controls (buffer treated cells) and expressed as percent of LPS stimulation. […]
# E. coli [2] = conditions: Konno et al., Peptides 2006; cited from earlier work
# P. aeruginosa [3] = conditions: Konno et al., Peptides 2006; cited from earlier work
# human erythrocytes = assay: Hemolytic activity assay; type: cell-based
# Protocol: The hemolytic activity of each peptide was determined by the leakage of hemoglobin from human erythrocytes (obtained from Divbioscience, NL) as previously described (Oyama et al., 2017 Biofilms Microbiomes, Dec 1;3:33).
# Briefly, human erythrocytes were washed 3 times with phosphate buffer saline (PBS) and concentrated using centrifugation at 800 g for 5 min. Human erythrocytes were then resuspended in PBS at a final concentration of 8 %. 100 µl of human erythrocytes were then added per well of sterile 96 well microplate already containing 15 µl of serially diluted antimicrobials (1:2 in distilled water). After 1 h at 37°C, the microplate was centrifuged at 800 g for 5 min. 100 µl were then carefully collected and transferred to a new 96 well microplate and OD was measured at 405 nm. Hemolysis caused by peptides was expressed as percentage of hemolysis; Triton-X100 at 0.1 % (v:v) was used as positive control and gave 100 % hemolysis. Hemolysis rate was determined as below: Hemolysis rate (%) = (A−A2)/(A1−A2) × 100% [formula] where A is the absorbance of indicator mixtures with different factors, A1 and A2 are the positive control, and the negative control, respectively.
# P. aeruginosa [4] = tested on: P. aeruginosa
# [5] = tested on: Gram-positive and Gram-negative bacteria
# E. coli [6] = tested on: E. coli
substance,measurement,setting,value
Polymyxin B [PMB],IC50,[1],57 nM and 57.6 nM
eumenitin,effective concentration against E. coli,E. coli [2],6 µM
same,effective concentration against P. aeruginosa,P. aeruginosa [3],30 µM
ILSAILGLLKNL-NH2 [Gallicus-CP(I1L12)],50% MHC (concentration inducing 50% hemolysis of human erythrocytes),human erythrocytes,10 µM
same,MIC (µM) P. aeruginosa,P. aeruginosa [4],100 µM
same,minimal inhibitory concentration (MIC),[5],1.56 to 100 µM
ILKAIKKLLKN-NH2 [LTX-gallicune-1 (I1N11)],hemolytic activity,human erythrocytes; at 1mM,not hemolytic
same,hemotoxicity: no toxicity towards red blood cells up to,human erythrocytes; highest concentration tested,> 10 mM
same,times less toxic (hemotoxic) than Gallicus-CP,"human erythrocytes; human erythrocytes, Fig 3",1000 times
same,MIC against S. aureus,S. aureus,≥ 100 µM
same,MIC (µM) E. coli,E. coli [6],6.25 µM
same,MIC against E. coli,E. coli [6],> 50 µM
same,MIC against B. subtilis,B. subtilis,6.25 µM
same,MIC (µM) A.baumani,A.baumani,100 µM
same,MIC against Candida albicans,Candida albicans,50 µM
